Source: patent US20120022116A1, “COMPOSITIONS AND METHODS FOR THE TREATMENT OF PATHOLOGICAL CONDITION(S) RELATED TO GPR35 AND/OR GPR35-HERG COMPLEX” (priority 2010, published 2012)
Entries after “also recorded” stand apart in the source; their conditions may differ. Like-named read-outs stand apart in the source and are kept apart here.

Assays:
[1] = system: HT29 cells; assay: cAMP-Glo assay in HT29 cells; type: cell-based, human; details: for increase in intracellular cAMP concentration: HT29 cells, Gs readout; for suppression in intracellular cAMP concentration: forskolin co-stimulated HT29 cells, Gi readout
Experimental: Cells were plated in 384well plates (BD Bioscience, Cat#354660) (10000 cells/well for HEK293, 20000 cells/well for HT29). Cells were cultured in complete growth medium overnight. The next day cAMP-Glo assay was performed according to manufacturer's instruction (Promega, Cat#V1502). Cells were incubated with 20 μM compounds in induction buffer with or without 0.5 μM or 5 μM forskolin for 30 minutes before adding lysis buffer. Luminescence was measured using Tecan SafireII reader.
Cells were plated in 384 well plates (BD Bioscience, Cat# 354660) (10000 cells/well for HEK293, 20000 cells/well for HT29). Cells were cultured in complete growth medium overnight. The next day cAMP-Glo assay was performed according to manufacturer's instruction (Promega, Cat#V 1502). Cells were incubated with 20 μM compounds in induction buffer with or without 0.5 μM or 5 μM forskolin for 30 minutes before adding lysis buffer. Luminescence was measured using Tecan SafireII reader.
Cells were plated in 384 well plates (BD Bioscience, Cat# 354660) (10000 cells/well for HEK293, 20000 cells/well for HT29). The cells were cultured in complete growth medium overnight. The next day a cAMP-Glo assay was performed according to manufacturer's instruction (Promega, Cat#V1502). The cells were incubated with 20 μM compounds in induction buffer with or without 0.5 μM or 5 μM forskolin for 30 minutes before adding lysis buffer. Luminescence was measured using Tecan SafireII reader.

[2] = system: HT29 cells; assay: Fluo-4 Ca2+ mobilization assay in native HT29 cells; type: cell-based, human; details: Fluo-4 assay, 10 micromolar
Experimental: Fluo-4 Direct™ Calcium Assay Kit was purchased from Invitrogen (Starter pack, Cat. no. F10471). HEK293 cells (15000 cells/well) and HT29 cells (30000 cells/well) were seeded in polyD-lysine coated 384well plates (Corning Inc., Cat#3845), culture overnight at 37° C. The next day, Ca^2+ flux assay was performed following manufacturer's instruction and fluorescence ratio (340 nm/380 nm) was measured on FDSS (Functional Drug Screening System, Hamamatsu Photonics, Japan). Compounds were prepared as 10× stock (final concentration 10 μM) in the Ca^2+ assay buffer.
Fluo-4 Direct™ Calcium Assay Kit was purchased from Invitrogen (Starter pack, Cat. no. F10471). HEK293 cells (15000 cells/well) and HT29 cells (30000 cells/well) were seeded in polyD-lysine coated 384 well plates (Corning Inc., Cat#3845) and cultured overnight at 37° C. The next day, the Ca^2+ flux assay was performed following manufacturer's instruction and fluorescence ratio (340 nm/380 nm) was measured on FDSS (Functional Drug Screening System, Hamamatsu Photonics, Japan). Compounds were prepared as 10× stock (final concentration 10 μM) in the Ca^2+ assay buffer.

[3] = system: GPR35; assay: DMR desensitization / antagonism mode against GPR35 agonist-induced DMR in HT29 cells; type: cell-based, human; details: for Desenstization to GPR35 agonist: HT29 cells pretreated with compound, then GPR35 agonist
[4] = system: HEK293 cells expressing only Gqo5 or GPR35; assay: Ca2+ mobilization assay in HEK293 cells expressing only Gqo5 or only GPR35; type: cell-based, human; details: engineered HEK293, 10 μM
Experimental: Ca^2+ flux assay with transient transfected cells were carried out in 96-well plates (Corning Inc, Cat#3664). HEK293 cells (25000 cells/well) were seeded on day 1. Cells were transfected with either myc-GPR35 or HA-Gqo5 or co-transfected with both plasmids (myc-GPR35/HA-Gqo5 DNA ratio 2:1) using Lipofectamine LTX (Invitrogen) on day 2. Ca^2+ flux assay was performed 24 hours after transfection.
Ca^2+ flux assays with transient transfected cells were carried out in 96-well plates (Corning Inc, Cat#3664). HEK293 cells (25000 cells/well) were seeded on day 1. Cells were transfected with either myc-GPR35 or HA-Gqo5 or co-transfected with both plasmids (myc-GPR35/HA-Gqo5 DNA ratio 2:1) using Lipofectamine LTX (Invitrogen) on day 2. Ca^2+ flux assays were performed 24 hours after transfection.

[5] = target: T1, GPR35 (Homo sapiens, UniProt Q9HC97); assay: Ca2+ mobilization assay (Fluo-4) in HEK-GPR35-Gqo5 cells; type: cell-based; details: for Ca2+ moblization (HEK-GPR35-Gqo5): HEK293 cells co-expressing GPR35 and Gqo5, Fluo-4, compounds 10 μM; for Ca2+ mobilization signal in cells co-expressing GPR35 and Gqo5: engineered HEK293, 10 μM
T1 construct: myc; expressed in transfected cells; host or cells: HEK293, transient co-transfection (Lipofectamine LTX)
T1 sequence (Q9HC97 whole entry): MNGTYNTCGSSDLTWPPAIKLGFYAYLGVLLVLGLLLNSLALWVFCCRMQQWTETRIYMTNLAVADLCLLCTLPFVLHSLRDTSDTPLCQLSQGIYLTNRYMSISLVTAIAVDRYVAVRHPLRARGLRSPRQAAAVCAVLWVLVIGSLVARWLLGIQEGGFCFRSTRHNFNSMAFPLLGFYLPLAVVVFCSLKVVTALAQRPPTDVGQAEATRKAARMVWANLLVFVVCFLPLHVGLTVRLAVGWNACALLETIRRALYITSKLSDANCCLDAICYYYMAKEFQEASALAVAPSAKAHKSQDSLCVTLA

[6] = target: T2, hERG channel (Homo sapiens, UniProt Q12809); assay: Automated patch clamp recording of hERG tail current (IonWorks); details: hERG tail current ratio post/pre-compound, 50 uM
T2 sequence (Q12809 whole entry): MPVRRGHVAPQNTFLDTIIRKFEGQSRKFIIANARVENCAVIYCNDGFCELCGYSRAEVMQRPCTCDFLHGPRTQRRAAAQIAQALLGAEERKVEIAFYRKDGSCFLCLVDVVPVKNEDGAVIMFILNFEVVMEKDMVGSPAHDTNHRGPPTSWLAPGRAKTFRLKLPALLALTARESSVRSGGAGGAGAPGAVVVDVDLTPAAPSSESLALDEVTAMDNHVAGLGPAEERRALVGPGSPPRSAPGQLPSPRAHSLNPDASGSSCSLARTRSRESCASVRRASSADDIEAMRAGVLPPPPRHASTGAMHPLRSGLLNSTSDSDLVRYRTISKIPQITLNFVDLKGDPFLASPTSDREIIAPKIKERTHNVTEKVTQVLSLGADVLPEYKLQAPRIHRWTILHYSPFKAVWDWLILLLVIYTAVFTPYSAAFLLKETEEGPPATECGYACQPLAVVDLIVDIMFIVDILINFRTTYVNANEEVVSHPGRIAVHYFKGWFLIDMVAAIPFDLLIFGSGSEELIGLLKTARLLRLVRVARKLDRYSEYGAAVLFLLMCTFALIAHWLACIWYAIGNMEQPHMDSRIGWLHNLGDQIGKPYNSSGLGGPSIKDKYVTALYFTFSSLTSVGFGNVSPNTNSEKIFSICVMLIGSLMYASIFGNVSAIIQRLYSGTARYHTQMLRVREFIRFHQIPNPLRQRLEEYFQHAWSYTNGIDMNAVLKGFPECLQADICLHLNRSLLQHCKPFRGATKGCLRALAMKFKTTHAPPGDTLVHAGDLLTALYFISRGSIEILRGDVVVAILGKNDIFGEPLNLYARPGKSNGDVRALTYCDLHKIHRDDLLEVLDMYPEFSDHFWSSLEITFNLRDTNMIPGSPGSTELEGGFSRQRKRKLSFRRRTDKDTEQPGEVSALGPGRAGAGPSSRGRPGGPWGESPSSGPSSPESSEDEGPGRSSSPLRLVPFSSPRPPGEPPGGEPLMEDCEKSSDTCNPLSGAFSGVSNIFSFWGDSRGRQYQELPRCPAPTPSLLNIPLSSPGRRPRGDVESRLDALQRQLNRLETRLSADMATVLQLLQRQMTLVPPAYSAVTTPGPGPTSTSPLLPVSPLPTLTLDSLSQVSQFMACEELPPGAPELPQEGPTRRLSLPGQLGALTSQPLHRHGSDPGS

[7] = system: GPR35; assay: GPR35 receptor internalization, immunofluorescence confocal imaging in HT29 cells; type: cell-based, human; details: anti-GPR35 antibody
Experimental: HT29 cells were plated on a 8-well chamber slide (10,000 cells/well) and incubated at 37° C. for 24 hrs. Next day, cells were fixed with 4% formaldehyde in 1×PBS for 15 min, followed by blocking and permeabilization in a buffer that contains 4% goat serum, 0.1% BSA, 0.1% Triton X100 in 1×PBS for 2 hrs. After 5 min wash with PBS, fixed cells were incubated with primary antibody anti-GPR35 (Abcam) (1:300) in 3% BSA/PBS buffer for 24 hrs, followed by incubation with secondary antibody Alexa Fluor® 488 goat anti-rabbit IgG (H+L) (Invitrogen) (1:250) in 3% BSA/PBS for 1 hr at room temperature. Cells were finally washed once with PBS and sealed with 1.5 mm thick glass cover-slip. Dried slides were stored at 4° C. until imaging. Confocal imaging was performed with Zeiss confocal microscope Axiovert 40. […] Confocal images were analyzed using MacBiophotonics Image J software (http://www.macbiophotonics.ca/downloads.htm).
HT29 cells were plated on a 8-well chamber slide (10,000 cells/well) and incubated at 37° C. for 24 hrs. […] Confocal images were analyzed using MacBiophotonics Image J software (http://www.macbiophotonics.ca/downloads.htm).
HT29 cells were plated on a 8-well chamber slide (10,000 cells/well) and incubated at 37° C. for 24 hrs. […] Confocal images were analyzed using MacBiophotonics Image J software (http://www.macbiophotonics.ca/downloads.htm). […]

[8] = system: HEK-293 cells; assay: DMR assay in parental HEK-293 cells; type: cell-based, human; details: zaprinast 10 μM
[9] = system: hERG channel; assay: Cross-desensitization DMR assay against hERG activator mallotoxin-induced DMR in HT29 cells
[10] = target: T2, hERG channel; parameters: expressed in transfected cells; details: 10 μM; cited from earlier work
[11] = system: hERG channel
[12] = system: HEK-hERG cells; assay: DMR assay in HEK-hERG cells; details: zaprinast 10 μM
[13] = system: HEK-hERG cells
[14] = listed as 6-bromo-3-methylthieno[3,2-b]thiophene-2-carboxylic acid

Compound | increase in intracellular cAMP concentration [1] | suppression in intracellular cAMP concentration [1] | Desenstization to GPR35 agonist [3] | desensitization / attenuation of the GPR35 agonist (zaprinast, NPPB) DMR signal in HT29 cells ([3]; pretreatment, zaprinast 400 nM) | Ca2+ mobilization signal in cells expressing only Gqo5 or GPR35 [4] | Ca2+ moblization (HEK-GPR35-Gqo5) [5] | Ca2+ mobilization signal in cells co-expressing GPR35 and Gqo5 [5] | Electrophysiology (HEK-hERG) [6] | DMR signal in HEK-293 cells [8] | also measured
Cc1c(C(=O)O)sc2c(Br)csc12 [Compound 13, 3-methyl-6-bromo-thieno[3,2-b]thiophene-2-carboxylic acid] | neither zaprinast nor 6-bromo-3-methylthieno[3,2-b]thiophene-2-carboxylic acid was able to cause increase in intracellular cAMP concentration | neither zaprinast nor 6-bromo-3-methylthieno[3,2-b]thiophene-2-carboxylic acid cause any suppression in intracellular cAMP concentration | desenstized | caused desensitization | failed to cause any obvious Ca^2+ mobilization signal | inactive | triggered quite obvious Ca^2+ signal | activator | – | Ca2+ mobilization signal in HT29 cells [2, 14]: unable to cause any detectable Ca^2+ signal; GPR35 receptor internalization [7, 14]: underwent internalization; also recorded: caused receptor internalization
CC(=O)c1c(O)c(C)c(O)c(Cc2c(O)c3c(c(C(=O)/C=C/c4ccccc4)c2O)OC(C)(C)C=C3)c1O [Mallotoxin, mallotoxin] | – | – | desenstized | – | – | – | – | activator | no detectable DMR signal (i.e., net-zero DMR) | desensitization / attenuation of the GPR35 agonist (zaprinast, NPPB) DMR signal in HT29 cells [3]: dose-dependently, partially inhibited; also recorded: partially attenuate; also recorded: dose-dependently desensitized; Desenstization to hERG activator ([9]; HT29 cells pretreated with compound, then hERG activator mallotoxin): desenstized; shift of the half maximal activation voltage (V1/2) to the hyperpolarizing direction [10]: more than 25 mV
Cc1cccc(Nc2ccccc2C(=O)O)c1C [Mefenamic Acid] | – | – | desenstized | – | – | inactive | – | – | – | Desenstization to hERG activator [11]: partially desenstized
CCCOc1ccccc1-c1nc2nn[nH]c2c(=O)[nH]1 [zaprinast] | neither zaprinast nor 6-bromo-3-methylthieno[3,2-b]thiophene-2-carboxylic acid was able to cause increase in intracellular cAMP concentration | neither zaprinast nor 6-bromo-3-methylthieno[3,2-b]thiophene-2-carboxylic acid cause any suppression in intracellular cAMP concentration | desenstized | dose-dependently caused desensitization | failed to cause any obvious Ca^2+ mobilization signal; also recorded: not in either parental cell, or the engineered cells expressing either GPR35 or Gqo5 | active | triggered quite obvious Ca^2+ signal; also recorded: triggered a detectable Ca^2+ mobilization signal; also recorded: active | inactive | net-zero DMR signal | DMR signal in HEK-hERG cells [12]: net-zero DMR signal; Ca2+ mobilization signal in HT29 cells [2]: failed to cause any significant Ca^2+ mobilization; also recorded: unable to cause any detectable Ca^2+ signal; also recorded: did not result in any detectable Ca^2+ mobilization signal; Ca2+ mobilization signal in HT29 cells ([2]; listed as Zaprinast): did not result in any detectable Ca^2+ mobilization signal; attenuation of the mallotoxin DMR signal in HT29 cells ([9]; pretreatment, mallotoxin 16 micromolar): dose-dependently, partially attenuated; also recorded: partially attenuate; also recorded: dose-dependently desensitized; impact on the mallotoxin DMR signal in HEK-hERG cells [13]: little or no impact; GPR35 receptor internalization [7]: underwent internalization; also recorded: caused receptor internalization; also recorded: significant receptor internalization
